# Laboratory results from US9006455B2 (Bristol-Myers Squibb Company, priority 2009, dated 2015).
# Read-outs that look alike come from different tables or passages of the source.
# System: HCV 1b genotype
# Test: HCV Replicon assay (HCV 1b genotype)
# Type: cell-based
# Details: Hepatitis C virus, HCV 1b genotype replicon
# Experimental: An HCV Replicon assay was utilized in the present disclosure, and was prepared, conducted and validated as described in commonly owned PCT/US2006/022197 and in O'Boyle et al., Antimicrob. Agents Chemother., 49(4):1346-1353 (April 2005). Assay methods incorporating luciferase reporters have also been used as described (Apath.com).
# HCV-neo replicon cells and replicon cells containing resistance substitutions in the NS5A region were used to test the currently described family of compounds. The compounds were determined to have differing degrees of reduced inhibitory activity on cells containing mutations vs. the corresponding inhibitory potency against wild-type cells. Thus, the compounds of the present disclosure can be effective in inhibiting the function of the HCV NS5A protein and are understood to be as effective in combinations as previously described in application PCT/US2006/022197 and commonly owned WO 04/014852. It should be understood that the compounds of the present disclosure can inhibit multiple genotypes of HCV. […] In one embodiment, compounds of the present disclosure are inhibitory versus 1a, 1b, 2a, 2b, 3a, 4a, and 5a genotypes.
# [1] = read-out: Range (EC50 values against HCV 1b)
Structure (SMILES),EC50 [1] [nM],EC50 (read-out: EC50) [nM]
"COC(=O)N[C@H](C(=O)N1[C@@H]2C[C@@H]2C[C@H]1c1nc(Cl)c(-c2ccc3cc(-c4ccc5nc([C@@H]6C[C@H]7C[C@H]7N6C(=O)[C@@H](NC(=O)OC)C6CCOCC6)[nH]c5c4)ccc3c2)[nH]1)C1CCOCC1 [Example 50, Methyl((1S)-2-((1R,3S,5R)-3-(4-chloro-5-(6-(2-((1R,3S,5R)-2-((2S)-2-((methoxycarbonyl)amino)-2-(tetrahydro-2H-pyran-4-yl)acetyl)-2-azabicyclo[3.1.0]hex-3-yl)-1H-benzimidazol-5-yl)-2-naphthyl)-1H-imidazol-2-yl)-2-azabicyclo[3.1.0]hex-2-yl)-2-oxo-1-(tetrahydro-2H-pyran-4-yl)ethyl)carbamate]",0.0101 to 1,–
"COC(=O)N[C@H](C(=O)N1[C@@H]2C[C@@H]2C[C@H]1c1ncc(-c2ccc3nc(-c4ccc5nc([C@@H]6C[C@H]7C[C@H]7N6C(=O)[C@@H](NC(=O)OC)C(C)C)[nH]c5c4)cnc3c2)[nH]1)C(C)C [Example 52, Methyl((1S)-1-(((1R,3S,5R)-3-(4-(2-(2-((1R,3S,5R)-2-((2S)-2-((methoxycarbonyl)amino)-3-methylbutanoyl)-2-azabicyclo[3.1.0]hex-3-yl)-1H-benzimidazol-5-yl)-6-quinoxalinyl)-1H-imidazol-2-yl)-2-azabicyclo[3.1.0]hex-2-yl)carbonyl)-2-methylpropyl)carbamate]",–,0.0059
"COC(=O)N[C@H](C(=O)N1[C@@H]2C[C@@H]2C[C@H]1c1ncc(-c2ccc3nc(-c4ccc5nc([C@@H]6C[C@H]7C[C@H]7N6C(=O)[C@@H](NC(=O)OC)C6CCOCC6)[nH]c5c4)cnc3c2)[nH]1)C1CCOCC1 [Example 53, Methyl((1S)-2-((1R,3S,5R)-3-(4-(2-(2-((1R,3S,5R)-2-((2S)-2-((methoxycarbonyl)amino)-2-(tetrahydro-2H-pyran-4-yl)acetyl)-2-azabicyclo[3.1.0]hex-3-yl)-1H-benzimidazol-5-yl)-6-quinoxalinyl)-1H-imidazol-2-yl)-2-azabicyclo[3.1.0]hex-2-yl)-2-oxo-1-(tetrahydro-2H-pyran-4-yl)ethyl)carbamate]",1.01 to 1000,1.81
"COC(=O)N[C@H](C(=O)N1[C@@H]2C[C@@H]2C[C@H]1c1ncc(-c2cnc3cc(-c4ccc5nc([C@@H]6C[C@H]7C[C@H]7N6C(=O)[C@@H](NC(=O)OC)C6CCOCC6)[nH]c5c4)ccc3n2)[nH]1)C1CCOCC1 [Example 58, Methyl((1S)-2-((1R,3S,5R)-3-(4-(6-(2-((1R,3S,5R)-2-((2S)-2-((methoxycarbonyl)amino)-2-(tetrahydro-2H-pyran-4-yl)acetyl)-2-azabicyclo[3.1.0]hex-3-yl)-1H-benzimidazol-5-yl)-2-quinoxalinyl)-1H-imidazol-2-yl)-2-azabicyclo[3.1.0]hex-2-yl)-2-oxo-1-(tetrahydro-2H-pyran-4-yl)ethyl)carbamate]",0.0101 to 1,0.849
"COC(=O)N[C@H](C(=O)N1[C@@H](C)CC[C@H]1c1ncc(-c2ccc(-c3ccc4cc(-c5cnc([C@@H]6CC[C@H](C)N6C(=O)[C@@H](NC(=O)OC)C6CCC(F)(F)CC6)[nH]5)ccc4c3)cc2)[nH]1)C1CCC(F)(F)CC1 [Example 71, Methyl((1S)-1-(4,4-difluorocyclohexyl)-2-((2S,5S)-2-(4-(4-(6-(2-((2S,5S)-1-((2S)-2-(4,4-difluorocyclohexyl)-2-((methoxycarbonyl)amino)acetyl)-5-methyl-2-pyrrolidinyl)-1H-imidazol-4-yl)-2-naphthyl)phenyl)-1H-imidazol-2-yl)-5-methyl-1-pyrrolidinyl)-2-oxoethyl)carbamate]",–,0.00211
"COC(=O)NC(C(=O)N1[C@@H]2C[C@@H]2C[C@H]1c1ncc(C#Cc2ccc3cc(-c4cnc([C@@H]5C[C@H]6C[C@H]6N5C(=O)C(NC(=O)OC)C5CCOCC5)[nH]4)ccc3c2)[nH]1)C1CCOCC1 (stereo partly drawn) [Example 75, methyl(2-((1R,3S,5R)-3-(4-(6-((2-((1R,3S,5R)-2-(((methoxycarbonyl)amino)(tetrahydro-2H-pyran-4-yl)acetyl)-2-azabicyclo[3.1.0]hex-3-yl)-1H-imidazol-4-yl)ethynyl)-2-naphthyl)-1H-imidazol-2-yl)-2-azabicyclo[3.1.0]hex-2-yl)-2-oxo-1-(tetrahydro-2H-pyran-4-yl)ethyl)carbamate]",1.01 to 1000,0.123
"COC(=O)N[C@H](C(=O)N1[C@@H]2C[C@@H]2C[C@H]1c1ncc(-c2ccc(-c3ccc4nc(-c5cnc([C@@H]6C[C@H]7C[C@H]7N6C(=O)[C@@H](NC(=O)OC)C(C)C)[nH]5)ccc4c3)cc2)[nH]1)C(C)C [Example 80, methyl((1S)-1-(((1R,3S,5R)-3-(4-(6-(4-(2-((1R,3S,5R)-2-((2S)-2-((methoxycarbonyl)amino)-3-methylbutanoyl)-2-azabicyclo[3.1.0]hex-3-yl)-1H-imidazol-4-yl)phenyl)-2-quinolinyl)-1H-imidazol-2-yl)-2-azabicyclo[3.1.0]hex-2-yl)carbonyl)-2-methylpropyl)carbamate]",–,0.00108
"COC(=O)N[C@H](C(=O)N1[C@@H]2C[C@@H]2C[C@H]1c1ncc(C#Cc2ccc3cc(-c4cnc([C@@H]5C[C@H]6C[C@H]6N5C(=O)[C@@H](NC(=O)OC)C5CCOCC5)[nH]4)ccc3c2)[nH]1)C1CCOCC1 [Example 82, Methyl((1S)-2-((1R,3S,5R)-3-(4-(6-((2-((1R,3S,5R)-2-((2S)-2-((methoxycarbonyl)amino)-2-(tetrahydro-2H-pyran-4-yl)acetyl)-2-azabicyclo[3.1.0]hex-3-yl)-1H-imidazol-4-yl)ethynyl)-2-naphthyl)-1H-imidazol-2-yl)-2-azabicyclo[3.1.0]hex-2-yl)-2-oxo-1-(tetrahydro-2H-pyran-4-yl)ethyl)carbamate]",0.0101 to 1,0.0422
"COc1cccc2c(C(=O)N3[C@@H]4C[C@@H]4C[C@H]3c3ncc(C#Cc4ccc5cc(-c6cnc([C@@H]7C[C@H]8C[C@H]8N7C(=O)c7nc(Cl)cc8c(OC)cccc78)[nH]6)ccc5c4)[nH]3)nc(Cl)cc12 [Example 93, 3-Chloro-1-(((1R,3S,5R)-3-(4-(6-((2-((1R,3S,5R)-2-((3-chloro-5-methoxy-1-isoquinolinyl)carbonyl)-2-azabicyclo[3.1.0]hex-3-yl)-1H-imidazol-4-yl)ethynyl)-2-naphthyl)-1H-imidazol-2-yl)-2-azabicyclo[3.1.0]hex-2-yl)carbonyl)-5-methoxyisoquinoline]",1.01 to 1000,40
"COC(=O)N[C@H](C(=O)N1[C@@H]2C[C@@H]2C[C@H]1c1ncc(-c2ccc3cc(C#Cc4cnc([C@@H]5C[C@H]6C[C@H]6N5C(=O)[C@@H](NC(=O)OC)C5CCOCC5)[nH]4)ccc3c2)[nH]1)C(C)C [Example 96, Methyl((1S)-2-((1R,3S,5R)-3-(4-((6-(2-((1R,3S,5R)-2-((2S)-2-((methoxycarbonyl)amino)-3-methylbutanoyl)-2-azabicyclo[3.1.0]hex-3-yl)-1H-imidazol-4-yl)-2-naphthyl)ethynyl)-1H-imidazol-2-yl)-2-azabicyclo[3.1.0]hex-2-yl)-2-oxo-1-(tetrahydro-2H-pyran-4-yl)ethyl)carbamate]",0.0101 to 1,–
"COC(=O)N[C@H](C(=O)N1[C@@H]2C[C@@H]2C[C@H]1c1ncc(C#Cc2ccc3cc(-c4cnc([C@@H]5CC[C@H](C)N5C(=O)[C@@H](NC(=O)OC)C5CCOCC5)[nH]4)ccc3c2)[nH]1)C1CCOCC1 [Example 98, Methyl((1S)-2-((2S,5S)-2-(4-(6-((2-((1R,3S,5R)-2-((2S)-2-((methoxycarbonyl)amino)-2-(tetrahydro-2H-pyran-4-yl)acetyl)-2-azabicyclo[3.1.0]hex-3-yl)-1H-imidazol-4-yl)ethynyl)-2-naphthyl)-1H-imidazol-2-yl)-5-methyl-1-pyrrolidinyl)-2-oxo-1-(tetrahydro-2H-pyran-4-yl)ethyl)carbamate]",0.0101 to 1,–
COC(=O)N[C@H](C(=O)N1[C@@H]2C[C@@H]2C[C@H]1c1ncc(-c2ccc(-c3ccc4nc(-c5cnc([C@@H]6C[C@H]7C[C@H]7N6C(=O)[C@@H](NC(=O)OC)C(C)C)[nH]5)cnc4c3)cc2)[nH]1)C(C)C [Example 104],–,0.00201
"CC(=O)N1[C@@H](C)CC[C@H]1c1ncc(-c2ccc(-c3ccc4cc(-c5cnc([C@@H]6CC[C@H](C)N6C(C)=O)[nH]5)ccc4c3)cc2)[nH]1 [Example 109, 2-((2S,5S)-1-Acetyl-5-methyl-2-pyrrolidinyl)-4-(4-(6-(2-((2S,5S)-1-acetyl-5-methyl-2-pyrrolidinyl)-1H-imidazol-4-yl)-2-naphthyl)phenyl)-1H-imidazole]",1.01 to 1000,180
"COC(=O)N[C@H](C(=O)N1C[C@@H](C)C[C@H]1c1ncc(-c2ccc(-c3ccc4nc(-c5cnc([C@@H]6C[C@H](C)CN6C(=O)[C@@H](NC(=O)OC)C6CCOCC6)[nH]5)ccc4c3)cc2)[nH]1)C1CCOCC1 [Example 114, Methyl((1S)-2-((2S,4S)-2-(4-(6-(4-(2-((2S,4S)-1-((2S)-2-((methoxycarbonyl)amino)-2-(tetrahydro-2H-pyran-4-yl)acetyl)-4-methyl-2-pyrrolidinyl)-1H-imidazol-4-yl)phenyl)-2-quinolinyl)-1H-imidazol-2-yl)-4-methyl-1-pyrrolidinyl)-2-oxo-1-(tetrahydro-2H-pyran-4-yl)ethyl)carbamate]",0.0101 to 1,–
